Assay results from patent US12161114B2, “Overpowered ABA receptor agonists” (The Regents of the University of California, priority 2018, dated 2024).
“Also recorded” adds a separate entry of the source.

Legend:
[1] = system: tomato plants; assay: thermal imaging of leaf temperature (anti-transpirant activity), tomato; assay type: in vivo, Lycopersicon esculentum; conditions: var. UC82, 50 μM or 100 μM spray, 24 hour intervals for 5 days
Experimental: To evaluate the efficacy of Opa in a different crop species, we performed quantitative thermal imaging in tomato plants. Tomato (var. UC82), seeds were spread on a moist filter paper and incubated in a dark chamber at room temperature for 7 days, after which they were transferred to light. After the first leaves emerged, the seedlings were transferred to soil and grown on a day night cycle; 3-4 w old plants were used for thermal imaging. Before thermal imaging, topical spraying of the plants was performed with a water solution containing ABA, quinabactin or the compound of interest, 0.5% DMSO and 0.05% Silwet-77 (Lehle seeds). 20 mL of 50 μM or 100 μM solutions were sprayed on the plants and thermal images were taken with an infrared camera (FLIR T62101) at 24 hour intervals after treatment for 5 days. […] Mock treated samples were analyzed with 8 replicates and chemical treatments with 4 replicates. […] The corrected p-values for treatment effects at all time points is summarized in the inset table and highlighted yellow if a significant increase in leaf temperature was observed.

[2] = system: Arabidopsis plants; assay: thermal imaging of leaf temperature (anti-transpirant activity), Arabidopsis; assay type: in vivo, Arabidopsis thaliana; conditions: 50 μM spray, 24 hr after treatment
Experimental: Three to 4 week old Arabidopsis plants were used for thermal imaging, 4 evenly spaced seedlings were included per 4-inch pot, each pot treated as a single measurement. Chemical treatments were as follow: compounds were dissolved in 0.5% DMSO and 0.02% Silwet-77 (Lehle seeds) at 50 μM and rosette leaves treated with 5 mL applied as an aerosol. Thermal images were collected using FLIR T62101 camera 24 hr after treatment. Seedlings positions were randomized to control for microenvironmental differences in the growth room. Treated plants were compared to mock treated plants (sprayed with 5 mL blank 0.5% DMSO/0.02% Silwet-77 solution). Average rosette leaf temperatures were obtained by averaging the temperatures measured from between 10-15˜1 cm^2 area spots from the 4 plants in each replicate pot, using FLIR software. Statistical analyses of the treatment effects were conducted in GraphPad using a one way ANOVA between control and treatment samples and a Dunnett test was used to obtain multiplicity adjusted p values, which are reported in FIG. 15.

[3] = system: panel of recombinant ABA receptors; PP2C HAB1; assay: receptor-mediated PP2C inhibition assay, dose response, umbelliferone substrate; assay type: biochemical, Arabidopsis
Experimental: Each ligand was tested at concentrations spanning 7 points between 4 nM and 50 μM in triplicate in a reaction buffer containing 100 mM Tris-HCl-pH7.9, 100 mM NaCl, 30 μg/ml BSA, 0.1% 2-mercaptoethanol, 25 nM ΔN-HAB1, 1 mM 4-methylumbelliferyl phosphate, and different recombinant ABA receptors at 50 nM or 300 nM (for PYL9 or PYL11). The substrate was added ˜20 minutes after the other components had been mixed and fluorescence data collected. Control carrier solvent-only wells were included as a reference and %-activity for tested compounds calculated relative to this control. The dose response data (PP2C activity versus agonist concentration) was fit to a log (inhibitor) vs. response-(variable slope) model using non-linear regression to infer the IC50S, using GraphPad Prism 6.0, to yield the IC50 values shown in FIG. 6.
The potency and selectivity of ligands 2b, 2e-f was established by testing their ability to activate multiple ABA receptor subtypes using the fluorescence based phosphasted assay as outlined in example 2 at a range of concentrations (4 nM to 50 μM). In addition, we compared ligand potency to ABA, quinabactin and a recently described fluorinated quinabactin analog AMF4, which is reported to have improved potency in comparison toe quinabactin. To conduct the assays purified recombinant receptors were tested at 50 nM or, in the a cases of PYL9 and PYL11, 300 nM and 25 nM ΔN-HAB1. The PP2C-activity dose response data obtained was fit to a log (inhibitor) vs response-(variable slope) model using non-linear regression to infer the IC50S, using GraphPad Prism 6.0, to yield IC50 values as shown in FIG. 12A. […] Moreover, the installation of a single cyclopropyl group ortho to the nitrile (analog 2e) provided a further boost in potency, dramatically so for all subfamily III receptors, PYL4 and PYL11. […] Furthermore, the installation of a second cyclopropyl substituent (analog 2f) provides an even further boot in activity on subfamily III receptors, which comes at the expense of reduced potency on subfamily I receptors. […] 2f is therefore an unusually overpowered ABA receptor agonist, which we refer to as opabactin (Opa).

[4] = system: wheat seedlings; assay: thermal imaging of leaf temperature (anti-transpirant activity), wheat; assay type: in vivo, Triticum aesitivum
Experimental: To evaluate the effects of the optimized ligands on transpiration, we performed quantitative thermal imaging of 2 week old wheat seedlings (var. Cal Rojo) after chemical or mock treatments. Each pot contained 15 seedlings and was treated as a single replicate for a total of n=4. Seedlings were treated with 10 mL aerosolized solutions containing compounds of interest dissolved in 0.5% DMSO and 0.05% Silwet-77 (Lehle seeds). Thermal images were collected using a FLIR T62101 camera ˜24 hours post treatment. Average leaf temperatures were obtained by averaging the temperatures measured from between 10-15 ˜1 cm^2 area spots from the 15 plants sowed in each replicate pot.
To gain more detailed comparisons of the potency and persistence of different ABA agonists, we treated wheat seedlings (var. WB9229) with a range of agonist concentrations (mock, 11, 33, 100, 300 μM) and collected leaf temperature data at 24 hour intervals for 5 days. Mock treated samples were analyzed with 10 replicates and chemical treatments with 5 replicates. […] The corrected p-values for treatment effects at all time points is summarized in the inset table and highlighted yellow if a significant increase in leaf temperature was observed.

[5] = system: wild type Columbia Arabidopsis thaliana seeds; assay: Arabidopsis seed germination assay; assay type: in vivo
Experimental: Prior to selecting a scaffold for optimization we conducted Arabidopsis seed germination assays to establish if the hits obtained are activity in vivo. Germination experiments were performed with surface sterilized wild type Columbia Arabidopsis thaliana seeds and abi1C (the abi1-1 allele isolated in the Columbia ecotype) plated onto 0.7% agar medium containing 1/2-x MS salts, 0.5% sucrose and differing concentrations of the test compounds. After 4d of stratification at 4° C., the plates were transferred to a growth chamber under continuous illumination and evaluated after 4 days.
To establish if the in vitro potency of Opa translates into improved activity in vivo, we measured the effects of ABA, QB, AMF4, Opa and 2e on Arabidopsis seed germination at a range of concentrations to infer quantitative measures or potency. Methods similar to that described in Example 3 are followed. The percentage of germinated seeds were recorded for each chemical treatment for each concentration in quadruplicate. EC50 values denote the concentrations at which 50% of seeds have been inhibited.

With `N#Cc1c(C2CC2)cc(CC(=O)NC2(C(=O)O)CCCCC2)cc1C1CC1` [2f, 1-[2-(4-cyano-3,5-dicyclopropylphenyl)acetamido]cyclohexane-1-carboxylic acid] the “anti-transpirant activity (leaf temperature)” value [1] was “highly active anti-transpirant in tomato with significantly longer effects than ABA”, the “effects on transpiration (leaf temperature)” value [2] was “ABA-like effects on transpiration” and the “potency in receptor-mediated PP2C inhibition (in words)” value ([3]; 4 nM to 50 μM dose response) was “most potent subfamily III agonist reported to date; also recorded: greatly more active than quinabactin and AMF4 on subfamily III receptors”. For the same compound, the “improved potency relative to ABA” value ([3]; subfamily IIIA receptors) was over 10 x, the “anti-transpirant activity (leaf temperature)” value ([4]; var. Cal Rojo, 50 μM, ~24 hours post treatment) was “highly efficacious anti-transpirant” and the “thermal response, potency and persistence” value ([4]; var. WB9229, 11, 33, 100, 300 μM, 24 hour intervals for 5 days) was “potent and persistent thermal response”. The test concentration (twice the EC50 for germination inhibition) ([5]; Arabidopsis thaliana, printed value is twice the EC50, used as test concentration on mutants, read-out: twice the concentrations determined as its EC50 (inhibition of germination) (converted)) was 60 nM, the “fold more active than either QB or AMF4 in seed germination inhibition” value ([5]; in vivo) was over 10 x and the “inhibition of Arabidopsis seed germination (in words)” value ([5]; in vivo) was “potently inhibits seed germination”.
